The source of these data is patent publication US9622987B2, “Synergistic pharmaceutical composition useful for the treatment of lung cancer” (Council of Scientific & Industrial Research, priority 2012, dated 2017).

For the assay, the system named is Lung Cancer cell Line (A-549). Kind of assay: Cell death / viability of A549 lung cancer cells exposed to vapour (MTT, trypan blue). It is filed as cell-based. The following applies: for activity so far lung cancer cell death is concerned (FIG. 1C): vapors of single compounds, 1:2000 dilution, 48 h, A549.

Protocol: The lung cancer cell line, A-549 were cultured in DMEM (Dulbecco's Modified Eagle Medium) containing Earle's salts and non-essential amino acids supplemented with 10% fetal calf serum, penicillin (100 U/ml) and streptomycin (100 μg/ml) in a humidified 95% O2/5% CO2 atmosphere at 37° C. Confluent cells were subcultured by trypsinization and subsequently seeded in 6 well culture plates containing DMEM with essential supplements.
After CVp treatment, cells were washed with PBS, trypsinized and re-suspended in complete growth medium. Trypan blue (0.4%) was added to the cell suspension and both live and dead cells were counted using a heamocytometer.
Cell viability was determined by performing MTT assay (Chemicon, Temecula, Calif., USA) according to manufacturer's instructions. Briefly, cells were plated in 96 well plates. Overnight after cell plating, cells were incubated with CVp. Briefly, 10 μL of 3-(4,5-dimethylthiazol-2-yl)-2-5-diphenyl tetrazolium bromide (MTT) was added to each well for 4 h at 37° C. After solubilization in 100 μL 1(N) isopropanol/0.04(N) HCl, absorbance was read at 595 nm in microplate reader (Thermo Electron Corporation, MA, USA).
The vapors generated from each of these wells were exposed to cells at 1:2000 dilution for 48 h. […] We therefore used the vapor from these combined compounds which is henceforth termed as Combined Vapour (CVp=C2+C3+C4).

Consider `CC(C)=CCCC(C)CC=O` (stereo not drawn) [Compound C1, Citronellal], for which the “activity so far lung cancer cell death is concerned (FIG. 1C)” value is given as “poor activity” and the “Activity in vapour form % of cell death for Lung Cancer cell Line (A-549)” value (from here on “Activity in vapour form % of cell death”) was found to be 12.5 ± 3.6%.

With `C=C(C)C1CCC(C)CC1O` (stereo not drawn) [Compound C2, Neo-isopulegol], the “Activity in vapour form % of cell death” value is 30.5 ± 5.0%.

Turning to `C=C(C)[C@@H]1CC[C@@H](C)C[C@H]1O` [Compound C3, Isopulegol], the “Activity in vapour form % of cell death” value is 36.0 ± 4.5%.

`CC(C)=CCCC(C)CCO` (stereo not drawn) [Compound C4, Citronellol]: the “activity so far lung cancer cell death is concerned (FIG. 1C)” value is given as “highest activity” and the “Activity in vapour form % of cell death” value amounted to 70.0 ± 6.0%.
